Experimental data: ChEMBL document CHEMBL1201862, “PubChem BioAssay data set” (2004)
The source made the active and inactive calls.

What was measured:
[1] = biological target: Type-1 angiotensin II receptor (Homo sapiens, UniProt P30556); test: AT1 receptor antagonists, dose response, selectivity assay for APJ receptor antagonist project, cell-based, uHTS hits (AID 463214); type: functional;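 note: antagonist potency against angiotensin II stimulated AT1 response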
Beta-galactosidase = Beta-galactosidase (Escherichia coli, UniProt Q8VNN2); test: PubChem AID 485352; type: functional
A-375 [2] = test: A375 melanoma cell viability reduction, dose response, counter-screen for MITF modulator project, cherry-pick samples, set 2 (AID 540335); type: functional, cell-based; settings: Homo sapiens
[3] = biological target: T1, Microphthalmia-associated transcription factor (Homo sapiens, UniProt O75030); test: TRPM1 promoter luciferase signal decrease, dose response, MITF inhibitor project, cell-based, SK-MEL-5, cherry-picked, set 3 (AID 493073); type: functional
T1 sequence (O75030 whole entry): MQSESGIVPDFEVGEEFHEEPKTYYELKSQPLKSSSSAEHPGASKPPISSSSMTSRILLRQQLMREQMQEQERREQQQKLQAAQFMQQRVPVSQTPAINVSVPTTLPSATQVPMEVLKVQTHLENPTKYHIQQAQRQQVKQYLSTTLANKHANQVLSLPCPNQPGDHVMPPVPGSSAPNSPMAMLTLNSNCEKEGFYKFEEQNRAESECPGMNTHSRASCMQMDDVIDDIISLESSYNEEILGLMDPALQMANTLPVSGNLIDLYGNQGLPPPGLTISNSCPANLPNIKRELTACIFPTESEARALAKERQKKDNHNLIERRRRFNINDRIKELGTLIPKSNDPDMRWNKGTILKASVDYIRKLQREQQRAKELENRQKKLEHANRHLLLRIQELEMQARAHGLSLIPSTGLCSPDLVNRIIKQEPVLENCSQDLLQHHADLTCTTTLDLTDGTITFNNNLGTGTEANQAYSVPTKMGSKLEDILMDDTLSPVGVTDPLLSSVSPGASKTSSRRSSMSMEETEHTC

[4] = HepG2 cell cytotoxicity, dose response, cytotoxicity control, ATP luminescence, cherry-pick, activator set 2 (AID 1053143); type: functional, cell-based
[5] = biological target: Delta-type opioid receptor (Homo sapiens, UniProt P41143); test: Counterscreen for agonists of heterodimerization of the mu 1 (OPRM1) and delta 1 (OPRD1) opioid receptors: Luminescence-based cell-based high throughput dose response assay to identify agonists of OPRD1 homodimerization. [Related pubchem assays (depositor defined):AID504326, AID504355, AID504692, AID504904, AID504905]; type: functional
[6] = biological target: 5-hydroxytryptamine receptor 5A (Homo sapiens, UniProt P47898); test: Counterscreen for agonists of OPRM1-OPRD1 heterodimerization: luminescence-based cell-based high throughput dose response assay to identify agonists of 5-hydroxytryptamine (serotonin) 5A receptor (HTR5A). [Related pubchem assays (depositor defined):AID504326, AID504355, AID504692, AID504904, AID504905]; type: functional
Mu-type opioid receptor = Mu-type opioid receptor (Homo sapiens, UniProt P35372); test: Counterscreen for agonists of heterodimerization of the mu 1 (OPRM1) and delta 1 (OPRD1) opioid receptors: Luminescence-based cell-based high throughput dose response assay to identify agonists of OPRM1 homodimerization.; type: functional;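 note: U2OS cells expressing OPRM1 and beta-arrestin as split beta-galactosidase partners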
Vero [7] = test: cells; type: functional, cell-based; settings: Chlorocebus sabaeus
Vero [8] = test: cells; type: functional; settings: Chlorocebus sabaeus
CAAX prenyl protease 2 [9] = biological target: CAAX prenyl protease 2 (Homo sapiens, UniProt Q9Y256); test: human Rce1 protease inhibitors, dose response, biochemical, yeast membranes, quenched-peptide fluorescence, cherry-pick (AID 588849)
CAAX prenyl protease 2 [10] = biological target: T2, CAAX prenyl protease 2 (Saccharomyces cerevisiae S288c, UniProt Q03530); type: biochemical
T2 sequence (Q03530 whole entry): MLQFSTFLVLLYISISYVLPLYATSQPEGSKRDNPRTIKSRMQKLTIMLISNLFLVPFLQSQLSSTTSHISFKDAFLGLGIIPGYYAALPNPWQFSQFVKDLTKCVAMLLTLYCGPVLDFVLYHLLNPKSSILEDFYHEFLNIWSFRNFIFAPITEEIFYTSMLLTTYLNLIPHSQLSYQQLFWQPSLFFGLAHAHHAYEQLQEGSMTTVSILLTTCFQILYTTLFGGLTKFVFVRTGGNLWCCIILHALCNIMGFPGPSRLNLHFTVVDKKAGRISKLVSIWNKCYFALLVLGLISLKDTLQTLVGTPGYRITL

[11] = growth suppression of beta-catenin-knockout colon cells, dose response, cell-based, HCT116, human colon tumor (AID 1045); type: functional;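 note: HCT116 colon tumor cells with beta catenin knocked out; cells exposed to compound for 60 hours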
[12] = biological target: Heat shock protein HSP 90-alpha (Homo sapiens, UniProt P07900); type: functional, organism-based
[13] = growth suppression of PTEN-null colon cells, dose response, cell-based, HCT116 PTEN knockout (AID 1047); type: functional;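 note: HCT116 colon tumor cells with PTEN knocked out; cells exposed to compound for 60 hours before readout; potency for loss of cell viability measured by luminescence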
A-375 [14] = test: MITF: Counter assay: A375 proliferation Measured in Cell-Based System Using Plate Reader - 2084-03_Inhibitor_Dose_DryPowder_Activity. [Related pubchem assays (depositor defined):AID488944]; type: functional; settings: Homo sapiens
[15] = inhibitors of firefly luciferase expression or activity, dose response, H4 neuroglioma cells, luminescence (AID 1990); type: functional, cell-based
[16] = biological target: T3, Short transient receptor potential channel 4 (Mus musculus, UniProt Q9QUQ5); test: mouse TRPC4 channel activators, dose response, cell-based, HEK293 TRPC4/mu-opioid, Fluo-4 calcium (AID 434937); type: functional
T3 sequence (Q9QUQ5 whole entry): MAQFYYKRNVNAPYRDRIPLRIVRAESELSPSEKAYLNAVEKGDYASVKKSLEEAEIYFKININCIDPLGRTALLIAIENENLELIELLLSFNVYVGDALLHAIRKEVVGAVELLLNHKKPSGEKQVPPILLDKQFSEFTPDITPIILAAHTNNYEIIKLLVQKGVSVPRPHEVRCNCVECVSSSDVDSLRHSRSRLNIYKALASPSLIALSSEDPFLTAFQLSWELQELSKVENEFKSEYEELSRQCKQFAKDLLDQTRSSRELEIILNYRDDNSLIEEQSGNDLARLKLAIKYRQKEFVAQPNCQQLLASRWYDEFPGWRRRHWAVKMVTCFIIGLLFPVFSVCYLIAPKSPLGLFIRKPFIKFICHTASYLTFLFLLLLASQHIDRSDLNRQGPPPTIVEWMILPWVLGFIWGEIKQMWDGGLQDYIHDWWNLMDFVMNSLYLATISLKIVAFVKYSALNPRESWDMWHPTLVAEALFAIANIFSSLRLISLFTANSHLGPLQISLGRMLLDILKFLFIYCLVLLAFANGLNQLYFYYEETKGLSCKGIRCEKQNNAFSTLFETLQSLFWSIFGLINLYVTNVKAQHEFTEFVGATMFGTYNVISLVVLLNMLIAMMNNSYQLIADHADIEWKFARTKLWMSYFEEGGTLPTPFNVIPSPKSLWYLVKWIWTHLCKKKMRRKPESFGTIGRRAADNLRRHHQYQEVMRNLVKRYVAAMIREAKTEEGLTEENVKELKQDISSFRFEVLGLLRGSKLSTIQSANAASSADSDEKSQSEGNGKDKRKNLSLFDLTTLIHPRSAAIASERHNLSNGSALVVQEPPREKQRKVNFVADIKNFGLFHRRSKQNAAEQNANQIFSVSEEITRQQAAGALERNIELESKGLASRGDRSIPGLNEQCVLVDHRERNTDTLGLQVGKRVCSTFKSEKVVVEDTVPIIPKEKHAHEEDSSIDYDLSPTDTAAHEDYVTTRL

[17] = Luminescence Cell-Based Dose Response HTS to Identify Inhibitors of 5'UTR Stem-Loop Driven Prion Protein mRNA Translation in H4 Neuroglioblastoma Cells. [Related pubchem assays: 1827 (Project Summary), 1813 (Primary HTS)]; type: functional
[18] = inhibitors of SNCA 5'UTR-driven reporter translation, confirmation, H4 neuroglioma cells, luminescence (AID 1988); type: functional, cell-based

Sequence of Beta-galactosidase (Q8VNN2 whole entry): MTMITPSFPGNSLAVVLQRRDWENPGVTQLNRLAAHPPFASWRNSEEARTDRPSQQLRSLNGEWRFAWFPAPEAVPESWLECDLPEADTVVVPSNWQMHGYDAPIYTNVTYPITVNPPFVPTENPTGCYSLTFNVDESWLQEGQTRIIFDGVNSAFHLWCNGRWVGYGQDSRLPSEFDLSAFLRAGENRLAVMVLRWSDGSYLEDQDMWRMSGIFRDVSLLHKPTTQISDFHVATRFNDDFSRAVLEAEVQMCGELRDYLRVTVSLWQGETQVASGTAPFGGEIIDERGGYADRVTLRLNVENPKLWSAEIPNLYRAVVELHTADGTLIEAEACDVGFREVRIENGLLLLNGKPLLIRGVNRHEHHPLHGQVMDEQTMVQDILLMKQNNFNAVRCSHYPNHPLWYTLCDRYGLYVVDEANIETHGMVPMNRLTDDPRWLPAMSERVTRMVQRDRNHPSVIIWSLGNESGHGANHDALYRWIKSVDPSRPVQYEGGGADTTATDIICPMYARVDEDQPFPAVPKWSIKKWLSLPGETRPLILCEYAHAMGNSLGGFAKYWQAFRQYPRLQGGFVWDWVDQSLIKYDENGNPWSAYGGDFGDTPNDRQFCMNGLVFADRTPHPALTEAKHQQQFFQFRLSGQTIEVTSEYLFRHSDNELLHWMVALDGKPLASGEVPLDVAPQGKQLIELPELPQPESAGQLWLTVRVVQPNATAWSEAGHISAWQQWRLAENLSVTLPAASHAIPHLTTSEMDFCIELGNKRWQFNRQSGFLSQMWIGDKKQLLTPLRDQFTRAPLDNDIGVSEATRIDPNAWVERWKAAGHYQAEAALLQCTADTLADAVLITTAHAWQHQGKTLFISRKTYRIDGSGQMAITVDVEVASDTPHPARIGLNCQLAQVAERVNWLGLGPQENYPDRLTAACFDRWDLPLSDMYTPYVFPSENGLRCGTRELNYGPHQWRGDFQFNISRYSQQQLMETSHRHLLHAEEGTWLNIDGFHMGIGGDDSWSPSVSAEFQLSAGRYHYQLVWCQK
Sequence of Type-1 angiotensin II receptor (P30556 whole entry): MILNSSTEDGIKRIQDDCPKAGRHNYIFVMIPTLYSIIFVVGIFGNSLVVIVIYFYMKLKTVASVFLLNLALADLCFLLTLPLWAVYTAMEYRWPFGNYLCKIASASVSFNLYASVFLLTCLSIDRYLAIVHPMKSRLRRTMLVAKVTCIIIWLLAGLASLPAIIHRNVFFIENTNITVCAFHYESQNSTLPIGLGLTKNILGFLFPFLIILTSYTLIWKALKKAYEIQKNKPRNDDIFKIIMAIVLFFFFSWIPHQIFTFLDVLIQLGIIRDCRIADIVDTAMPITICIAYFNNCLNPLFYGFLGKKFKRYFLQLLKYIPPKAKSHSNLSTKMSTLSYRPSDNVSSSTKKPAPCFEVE
Sequence of CAAX prenyl protease 2 (Homo sapiens, UniProt Q9Y256) (Q9Y256 whole entry): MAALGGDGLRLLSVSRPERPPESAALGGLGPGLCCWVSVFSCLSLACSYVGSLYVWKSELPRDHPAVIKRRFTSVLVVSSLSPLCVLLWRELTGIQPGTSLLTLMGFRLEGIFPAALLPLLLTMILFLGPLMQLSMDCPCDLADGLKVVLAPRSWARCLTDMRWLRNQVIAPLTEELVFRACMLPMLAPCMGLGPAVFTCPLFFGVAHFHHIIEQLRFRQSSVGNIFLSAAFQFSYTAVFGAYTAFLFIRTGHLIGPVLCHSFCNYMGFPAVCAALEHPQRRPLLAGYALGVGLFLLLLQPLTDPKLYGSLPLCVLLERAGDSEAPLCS
Sequence of 5-hydroxytryptamine receptor 5A (P47898 whole entry): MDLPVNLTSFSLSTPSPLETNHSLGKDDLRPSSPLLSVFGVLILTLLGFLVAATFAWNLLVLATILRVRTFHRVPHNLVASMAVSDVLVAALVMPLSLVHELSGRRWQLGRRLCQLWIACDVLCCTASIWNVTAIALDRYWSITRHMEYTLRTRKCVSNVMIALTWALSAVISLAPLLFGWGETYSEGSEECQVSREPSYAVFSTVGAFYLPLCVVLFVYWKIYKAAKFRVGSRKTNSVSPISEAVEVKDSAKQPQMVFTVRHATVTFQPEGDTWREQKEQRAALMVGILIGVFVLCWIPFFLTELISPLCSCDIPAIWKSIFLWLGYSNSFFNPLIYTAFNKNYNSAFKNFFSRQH
Sequence of Mu-type opioid receptor (P35372 whole entry): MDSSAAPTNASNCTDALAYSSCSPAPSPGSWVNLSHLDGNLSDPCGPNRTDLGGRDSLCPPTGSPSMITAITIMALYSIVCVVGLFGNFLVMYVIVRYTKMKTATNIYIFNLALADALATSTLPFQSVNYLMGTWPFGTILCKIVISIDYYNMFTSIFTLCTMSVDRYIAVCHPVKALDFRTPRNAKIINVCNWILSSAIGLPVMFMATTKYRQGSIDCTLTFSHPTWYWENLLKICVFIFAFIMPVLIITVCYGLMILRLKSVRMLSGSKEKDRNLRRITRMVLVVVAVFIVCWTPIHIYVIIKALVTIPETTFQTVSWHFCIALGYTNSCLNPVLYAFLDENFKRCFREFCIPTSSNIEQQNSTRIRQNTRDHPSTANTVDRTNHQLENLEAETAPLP
Sequence of Delta-type opioid receptor (P41143 whole entry): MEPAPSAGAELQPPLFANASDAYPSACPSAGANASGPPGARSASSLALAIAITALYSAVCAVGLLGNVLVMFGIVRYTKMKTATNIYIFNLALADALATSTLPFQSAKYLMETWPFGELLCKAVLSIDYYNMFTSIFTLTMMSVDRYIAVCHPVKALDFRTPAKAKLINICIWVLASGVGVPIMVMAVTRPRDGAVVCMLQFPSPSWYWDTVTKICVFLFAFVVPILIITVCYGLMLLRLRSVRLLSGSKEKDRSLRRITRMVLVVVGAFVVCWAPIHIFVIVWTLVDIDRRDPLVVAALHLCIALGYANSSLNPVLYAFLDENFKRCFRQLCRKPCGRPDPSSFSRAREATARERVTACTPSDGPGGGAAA

Compound: CCOC(=O)C1=C(C)N=C2CC(c3cccs3)CC(O)=C2C1c1cccs1 (stereo not given)
- IC50 [1]: 36 µM (not active)
- EC50 (Beta-galactosidase): 39.3 µM (active)

Compound: CC(C)Oc1ccc(C(CCNCc2ccc(O)cc2)c2ccccc2)cc1 (stereo not given)
- AC50 (A-375 [2]): 18.8 µM (active)
- AC50 [3]: 12.8 µM (active)

Compound: CN1CCN(c2ccc(NC(=O)c3ccc(-c4ccccc4F)o3)cc2)CC1
- AC50 [4]: 26 µM (active)
- EC50 [5]: 32.6 µM (inactive)
- EC50 [6]: > 92.5 µM (inactive)
- EC50 (Mu-type opioid receptor): 26.3 µM (inactive)
- IC50 (Vero [7]): 24.8 µM (active)
- CC50 (Vero [8]): > 25 µM (active)

Compound: COc1ccc(-c2c(C)oc3c(CN4CCN(C)CC4)c(O)ccc3c2=O)cc1
- AC50 (CAAX prenyl protease 2 [9]): 3.72 µM (active)
- AC50 (CAAX prenyl protease 2 [10]): 28.6 µM (active)

Compound: O=C(/C=C/c1cccc([N+](=O)[O-])c1)c1cccs1
- AC50 (A-375 [2]): > 35 µM (active)
- EC50 [11]: 10.9 µM (active)
- AC50 [12]: 4.16 µM (active)
- EC50 [13]: 14.3 µM (active)
- AC50 (A-375 [14]): > 35 µM (active)
- AC50 [3]: 15.3 µM (active)

Compound: COc1ccccc1C(=O)NNC(=S)NC(=O)c1cccs1
- IC50 [1]: 20.4 µM (not active)
- AC50 [12]: 3.85 µM (active)
- EC50 (Beta-galactosidase): > 40 µM (inactive)
- EC50 [15]: > 120 µM (not active)
- EC50 [16]: 6.68 µM (active)
- EC50 [17]: 13.2 µM (active)
- EC50 [18]: > 120 µM (not active)
